In brackets after ≈: the same amount, converted by molar mass.
System: Mycobacterium tuberculosis
Test: Antitubercular activity against rifampicin and isoniazid-resistant Mycobacterium tuberculosis isolate 2199 after 24 hrs by microplate alamar blue assay
Assay type: functional
Conditions: isolate 2199, 24 h

SMILES | MIC
CSCCC(NC(=O)NC(Cc1c[nH]c2ccccc12)C(=O)O)C(=O)NC(C(=O)N/C=C1\C[C@@H](O)[C@H](n2ccc(=O)[nH]c2=O)O1)C(C)N(C)C(=O)C(Cc1cccc(O)c1)NC(C)C (some centres undefined) | 8 µg/mL (≈ 8.83 µM)
NNC(=O)c1ccncc1 [ISONIAZID] | 40 µg/mL (≈ 292 µM)
CO[C@H]1/C=C/O[C@@]2(C)Oc3c(C)c(O)c4c(O)c(c(/C=N/N5CCN(C)CC5)c(O)c4c3C2=O)NC(=O)/C(C)=C\C=C\[C@H](C)[C@H](O)[C@@H](C)[C@@H](O)[C@@H](C)[C@H](OC(C)=O)[C@@H]1C [RIFAMPIN] | 20 µg/mL (≈ 24.3 µM)
CSCCC(NC(=O)NC(Cc1c[nH]c2ccccc12)C(=O)O)C(=O)NC(C(=O)N/C=C1\C[C@@H](O)[C@H](n2ccc(=O)[nH]c2=O)O1)C(C)N(C)C(=O)C(N)Cc1cccc(O)c1 (some centres undefined) [SANSANMYCIN A] | 32 µg/mL (≈ 37 µM)

Source: ChEMBL document CHEMBL1909588, “Synthesis and in vitro antitubercular evaluation of novel sansanmycin derivatives” (2011)
